Values joined by “and” are separate entries in the source; they are usually repeats but may differ in a detail not shown here. Equal entries are not always repeated. Where two headings read alike, the source gives them in different places.
How the values were obtained:
5HT3 receptors [1] = target: T1, 5HT3 receptors (Homo sapiens, UniProt P46098); settings: cited from earlier work
T1 sequence (P46098 24-478): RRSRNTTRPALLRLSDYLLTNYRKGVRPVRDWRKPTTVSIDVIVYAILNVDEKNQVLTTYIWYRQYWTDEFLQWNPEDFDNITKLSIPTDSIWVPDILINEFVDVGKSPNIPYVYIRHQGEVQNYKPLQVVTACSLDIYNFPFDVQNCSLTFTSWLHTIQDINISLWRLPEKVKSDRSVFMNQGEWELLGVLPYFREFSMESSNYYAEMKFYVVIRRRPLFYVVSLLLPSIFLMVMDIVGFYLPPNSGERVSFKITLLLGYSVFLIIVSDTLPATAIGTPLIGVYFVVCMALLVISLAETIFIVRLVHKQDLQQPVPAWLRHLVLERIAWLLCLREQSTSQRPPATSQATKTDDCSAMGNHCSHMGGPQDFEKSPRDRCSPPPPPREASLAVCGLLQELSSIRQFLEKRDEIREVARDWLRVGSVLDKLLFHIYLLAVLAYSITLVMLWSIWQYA

[2] = system: rat brain membrane α7 sites; settings: cited from earlier work
5HT3 receptors [3] = target: T1, 5HT3 receptors; settings: cited from earlier work; remark: listed apart in the source
human α7 = settings: cited from earlier work
other nAChR tested = settings: cited from earlier work
5HT3 receptors [4] = target: T1, 5HT3 receptors; assay type: cell-based; settings: 100 µM; normalized to maximal serotonin response; detection threshold 5%
α7 nAChR [5] = target: α7 nAChR (Homo sapiens, UniProt P36544)
α7 nAChR (Homo sapiens, UniProt P36544), sequence (P36544 23-502): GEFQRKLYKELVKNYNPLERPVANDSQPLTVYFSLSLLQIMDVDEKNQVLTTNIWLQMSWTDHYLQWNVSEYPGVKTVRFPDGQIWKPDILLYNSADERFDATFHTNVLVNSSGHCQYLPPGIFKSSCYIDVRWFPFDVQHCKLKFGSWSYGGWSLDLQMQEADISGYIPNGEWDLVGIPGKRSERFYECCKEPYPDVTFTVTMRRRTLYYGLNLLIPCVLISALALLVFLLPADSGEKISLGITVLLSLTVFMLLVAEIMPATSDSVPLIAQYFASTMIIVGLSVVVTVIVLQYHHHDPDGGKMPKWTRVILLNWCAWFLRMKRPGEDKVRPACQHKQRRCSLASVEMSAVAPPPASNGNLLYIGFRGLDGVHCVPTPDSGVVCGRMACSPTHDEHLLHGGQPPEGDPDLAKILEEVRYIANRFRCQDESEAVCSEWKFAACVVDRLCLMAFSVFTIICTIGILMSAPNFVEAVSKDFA

α9 nAChR = settings: ref Papke et al., 1996; Verbitsky et al., 2000; cited from earlier work
[6] = target: T2, muscle type (α1β1εδ) nAChR (Homo sapiens, UniProt P02708+Q04844+Q07001); assay type: cell-based; settings: 100 µM coapplied with 3 µM ACh
T2 sequence (P02708 21-457): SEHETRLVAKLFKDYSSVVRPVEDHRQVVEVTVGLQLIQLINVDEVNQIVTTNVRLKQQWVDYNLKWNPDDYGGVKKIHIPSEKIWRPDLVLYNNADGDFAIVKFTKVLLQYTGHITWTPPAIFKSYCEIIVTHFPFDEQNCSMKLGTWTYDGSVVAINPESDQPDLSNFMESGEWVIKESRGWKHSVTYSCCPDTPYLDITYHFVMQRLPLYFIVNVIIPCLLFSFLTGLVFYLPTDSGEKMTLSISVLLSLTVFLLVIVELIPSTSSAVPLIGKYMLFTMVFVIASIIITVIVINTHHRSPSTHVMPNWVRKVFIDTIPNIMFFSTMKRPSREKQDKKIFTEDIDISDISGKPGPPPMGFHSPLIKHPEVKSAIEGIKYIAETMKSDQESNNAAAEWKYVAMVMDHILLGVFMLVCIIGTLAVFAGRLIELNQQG
T2 sequence (P11230 24-501 partner): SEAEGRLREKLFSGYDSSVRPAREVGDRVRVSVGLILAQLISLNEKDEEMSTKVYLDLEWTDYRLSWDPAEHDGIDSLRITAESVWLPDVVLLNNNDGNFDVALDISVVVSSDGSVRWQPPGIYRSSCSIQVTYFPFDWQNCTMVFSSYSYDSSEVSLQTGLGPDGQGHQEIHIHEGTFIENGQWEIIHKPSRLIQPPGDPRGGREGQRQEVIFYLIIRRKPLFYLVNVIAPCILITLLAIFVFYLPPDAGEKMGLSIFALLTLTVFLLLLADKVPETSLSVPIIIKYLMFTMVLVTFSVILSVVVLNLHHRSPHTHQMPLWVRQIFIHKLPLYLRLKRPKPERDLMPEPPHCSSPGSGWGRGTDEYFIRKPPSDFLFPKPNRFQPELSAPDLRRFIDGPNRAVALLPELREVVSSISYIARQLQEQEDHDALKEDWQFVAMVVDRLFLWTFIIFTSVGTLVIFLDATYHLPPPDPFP
T2 sequence (Q04844 21-493): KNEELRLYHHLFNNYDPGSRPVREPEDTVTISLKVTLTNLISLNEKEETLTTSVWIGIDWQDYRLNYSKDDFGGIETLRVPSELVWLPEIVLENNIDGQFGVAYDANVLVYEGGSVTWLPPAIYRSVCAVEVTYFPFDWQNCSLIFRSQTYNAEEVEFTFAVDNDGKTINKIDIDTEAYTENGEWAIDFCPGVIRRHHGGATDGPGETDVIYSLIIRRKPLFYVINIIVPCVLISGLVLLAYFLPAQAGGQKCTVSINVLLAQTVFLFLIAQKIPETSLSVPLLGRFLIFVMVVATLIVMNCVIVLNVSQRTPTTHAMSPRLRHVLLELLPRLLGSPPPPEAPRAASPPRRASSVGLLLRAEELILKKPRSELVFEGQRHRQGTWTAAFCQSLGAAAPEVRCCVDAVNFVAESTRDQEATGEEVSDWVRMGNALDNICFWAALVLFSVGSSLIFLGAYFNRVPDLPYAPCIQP
T2 sequence (Q07001 22-517): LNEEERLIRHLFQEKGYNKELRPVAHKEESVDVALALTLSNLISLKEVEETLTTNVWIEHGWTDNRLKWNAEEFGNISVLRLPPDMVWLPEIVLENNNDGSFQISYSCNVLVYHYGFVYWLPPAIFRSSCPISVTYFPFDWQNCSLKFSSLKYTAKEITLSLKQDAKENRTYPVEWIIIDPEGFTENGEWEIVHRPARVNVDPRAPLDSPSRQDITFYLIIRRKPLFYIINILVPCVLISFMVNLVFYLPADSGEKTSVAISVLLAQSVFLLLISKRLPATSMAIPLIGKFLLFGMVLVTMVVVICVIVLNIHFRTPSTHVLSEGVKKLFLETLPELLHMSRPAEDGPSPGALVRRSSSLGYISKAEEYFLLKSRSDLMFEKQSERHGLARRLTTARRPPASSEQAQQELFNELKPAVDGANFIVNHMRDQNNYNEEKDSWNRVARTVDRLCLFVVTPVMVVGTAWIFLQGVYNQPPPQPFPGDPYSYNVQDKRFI

α4β2 nAChR [7] = target: T3, α4β2 nAChR (Homo sapiens, UniProt P17787+P43681); test: cell-based; assay type: cell-based
T3 sequence (P43681 29-627 limits assumed): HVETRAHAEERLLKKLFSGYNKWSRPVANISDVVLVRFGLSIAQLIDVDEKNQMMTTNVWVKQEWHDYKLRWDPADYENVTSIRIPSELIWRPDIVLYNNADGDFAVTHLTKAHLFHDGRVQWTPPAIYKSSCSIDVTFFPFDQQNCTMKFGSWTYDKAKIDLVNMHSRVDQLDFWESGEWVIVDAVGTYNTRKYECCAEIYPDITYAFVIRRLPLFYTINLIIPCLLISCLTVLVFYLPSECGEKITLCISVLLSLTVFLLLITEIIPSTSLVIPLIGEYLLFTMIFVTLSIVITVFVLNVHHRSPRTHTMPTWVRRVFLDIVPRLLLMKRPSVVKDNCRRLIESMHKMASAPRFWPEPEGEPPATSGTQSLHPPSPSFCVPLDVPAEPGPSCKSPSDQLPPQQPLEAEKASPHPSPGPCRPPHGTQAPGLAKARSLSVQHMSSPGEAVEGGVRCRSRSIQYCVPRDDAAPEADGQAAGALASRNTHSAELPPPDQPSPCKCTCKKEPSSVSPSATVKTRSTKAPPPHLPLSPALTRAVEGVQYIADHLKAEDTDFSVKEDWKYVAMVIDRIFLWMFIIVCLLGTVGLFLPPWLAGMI
T3 sequence (P17787 26-502): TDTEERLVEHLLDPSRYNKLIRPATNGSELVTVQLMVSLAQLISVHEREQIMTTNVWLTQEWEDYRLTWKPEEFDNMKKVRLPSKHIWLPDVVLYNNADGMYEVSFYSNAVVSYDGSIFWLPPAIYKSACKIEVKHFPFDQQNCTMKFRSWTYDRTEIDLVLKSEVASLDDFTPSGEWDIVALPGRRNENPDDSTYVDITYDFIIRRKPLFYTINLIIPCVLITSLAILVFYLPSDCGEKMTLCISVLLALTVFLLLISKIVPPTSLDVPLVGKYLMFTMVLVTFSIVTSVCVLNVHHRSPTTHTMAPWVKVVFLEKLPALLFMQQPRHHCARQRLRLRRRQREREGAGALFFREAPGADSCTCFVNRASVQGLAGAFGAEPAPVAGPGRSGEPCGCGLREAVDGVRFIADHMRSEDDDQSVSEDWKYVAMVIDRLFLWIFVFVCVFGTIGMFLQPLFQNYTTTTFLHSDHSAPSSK

[8] = target: T2, muscle type (α1β1εδ) nAChR; assay type: cell-based; settings: 100 µM; normalized to ACh maximum; detection threshold 0.5%
α3β4 nAChR = α3β4 nAChR (Homo sapiens, UniProt P30926+P32297)
α3β4 nAChR, sequence (P32297 32-505): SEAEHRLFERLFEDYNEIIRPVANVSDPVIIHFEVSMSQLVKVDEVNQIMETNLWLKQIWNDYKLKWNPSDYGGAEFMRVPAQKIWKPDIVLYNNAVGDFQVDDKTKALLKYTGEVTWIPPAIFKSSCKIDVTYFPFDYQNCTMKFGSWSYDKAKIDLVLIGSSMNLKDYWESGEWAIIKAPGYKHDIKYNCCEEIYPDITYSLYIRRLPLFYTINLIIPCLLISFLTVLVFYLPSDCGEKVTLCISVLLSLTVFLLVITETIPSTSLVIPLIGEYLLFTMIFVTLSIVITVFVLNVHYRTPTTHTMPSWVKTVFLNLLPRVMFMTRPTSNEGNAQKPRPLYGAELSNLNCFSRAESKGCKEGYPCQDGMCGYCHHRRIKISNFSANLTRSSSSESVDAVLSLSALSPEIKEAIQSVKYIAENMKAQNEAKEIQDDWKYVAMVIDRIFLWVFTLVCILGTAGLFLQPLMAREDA
α3β4 nAChR, sequence (P30926 22-498): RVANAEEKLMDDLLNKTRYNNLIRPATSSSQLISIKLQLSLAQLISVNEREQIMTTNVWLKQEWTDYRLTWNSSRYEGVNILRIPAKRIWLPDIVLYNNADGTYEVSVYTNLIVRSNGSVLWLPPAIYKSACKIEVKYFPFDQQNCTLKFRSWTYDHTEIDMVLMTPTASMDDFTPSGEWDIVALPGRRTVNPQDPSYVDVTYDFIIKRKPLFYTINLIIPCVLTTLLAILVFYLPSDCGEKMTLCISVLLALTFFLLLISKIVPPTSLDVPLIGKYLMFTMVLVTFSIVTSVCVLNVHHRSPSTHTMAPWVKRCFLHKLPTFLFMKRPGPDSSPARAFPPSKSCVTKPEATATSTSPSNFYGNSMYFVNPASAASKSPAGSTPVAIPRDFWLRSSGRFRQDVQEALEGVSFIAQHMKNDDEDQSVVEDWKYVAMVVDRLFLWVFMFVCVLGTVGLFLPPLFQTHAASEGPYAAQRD

5HT3 receptors [9] = target: T1, 5HT3 receptors; assay type: cell-based; settings: 100 µM coapplied with 10 µM serotonin
α4β2 nAChR [10] = target: T3, α4β2 nAChR; assay type: cell-based; settings: 100 µM coapplied with 30 µM ACh
α7 nAChR [11] = settings: cited from earlier work
rat α7 nAChR = settings: X. laevis oocytes; ref Papke et al., 2005b; cited from earlier work

For `COc1ccccc1-c1cccc2cc(C(=O)N[C@H]3CN4CCC3CC4)oc12` [ABBF, N-[(3R)-1-azabicyclo[2.2.2]oct-3-yl]-7-[2-(methoxy)phenyl]-1-benzofuran-2-carboxamide], the “affinity for 5HT3 receptors” value (5HT3 receptors [1]) is listed as “Putative full agonist for human α7 (EC50 ≈ 3 µM) and an antagonist for other nAChR tested (IC50 values of 1–8 µM). Mechanism of antagonism not investigated. Bound to 5HT3 receptors with high affinity (60 nM), comparable with rat brain membrane α7 sites (62 nM)”, the “affinity for rat brain membrane α7 sites” value [2] is listed as “Putative full agonist for human α7 (EC50 ≈ 3 µM) and an antagonist for other nAChR tested (IC50 values of 1–8 µM). Mechanism of antagonism not investigated. Bound to 5HT3 receptors with high affinity (60 nM), comparable with rat brain membrane α7 sites (62 nM)” and the “Effects on 5HT3 Receptors” value (5HT3 receptors [3]) is listed as “Antagonist”. The “agonist character at human α7 (Summary)” value (human α7) was “Putative full agonist for human α7 (EC50 ≈ 3 µM) and an antagonist for other nAChR tested (IC50 values of 1–8 µM). Mechanism of antagonism not investigated. Bound to 5HT3 receptors with high affinity (60 nM), comparable with rat brain membrane α7 sites (62 nM)” and the EC50 (human α7; read-out: EC50 human α7) was about 3 µM.
For `O=C(N[C@H]1CN2CCC1CC2)c1ccc(Cl)cc1` [PNU-282987], the Ki ([2]; read-out: Ki, displacement of MLA binding from rat brain homogenates) is given as 0.027 µM and the IC50 (5HT3 receptors [3]; read-out: IC50 5HT3 receptors (functional antagonist)) is given as about 5 µM.
For `C[N+](C)(C)CCO` [Choline, choline, reference compound], the “activity at heteromeric nAChR (Summary)” value (other nAChR tested; ref Papke et al., 1996, Verbitsky et al., 2000) is listed as “little or no activity”, the “5HT3 Activity” value (5HT3 receptors [4]) is listed as “N” and the EC50 (α7 nAChR [5]) is listed as 243 ± 8 µM. For the same molecule, the “α7 Imax” value (α7 nAChR [5]) was 0.90 ± 0.1, the “α7 potency, fold less potent than ACh” value (α7 nAChR [5]) was “approximately 10 fold” and the “α7 potency, fold lower than related agonists that lack the oxygen group (e.g., ETMA and QN)” value (α7 nAChR [5]) was “at least 10 fold”. For the same molecule, the “activity at α9 nAChR (Summary)” value (α9 nAChR) was “agonist”, the “α1β1εδ Inhibition” value [6] was “N.S” and the “α4β2 Activity” value (α4β2 nAChR [7]; 100 µM, normalized to ACh maximum, detection threshold 1%) was “≈1%”. For the same molecule, the “α4β2 response, % of the ACh maximum” value (α4β2 nAChR [7]; 3 mM agonist) was 2.3 ± 0.3% and 2%, the “α1β1εδ Activity” value [8] was “N” and the “agonist character at α3β4” value (α3β4 nAChR) was “too low to be characterized in regard to potency”. For the same molecule, the “α3β4 Imax” value (α3β4 nAChR; peak current, relative to ACh maximum (ACh constrained to 1)) was 0.04 ± 0.01, the “5HT3 Inhibition” value (5HT3 receptors [9]) was “N.S” and the “α4β2 Inhibition” value (α4β2 nAChR [10]) was “N.S”. For the same molecule, the “potency for α7, fold lower than that of ACh” value (α7 nAChR [11]) was 10 fold.
For `C[C@H](OC(=O)N[C@@H]1CN2CCC1CC2)c1ccccc1F` [JN403], the “activity at 5HT3 receptors and other nAChRs (Summary)” value (other nAChR tested) is listed as “In the X. laevis oocyte experiments, JN403 was a relatively potent partial agonist, with an efficacy of approximately 50% of that of ACh. 5HT3 receptors and other nAChRs were evaluated with calcium flux measurements in transfected cells, and JN403 was antagonist in these experiments”, the IC50 (5HT3 receptors [3]; read-out: IC50 5HT3 receptors (antagonist)) is listed as about 20 µM and the “α7 efficacy, % of that of ACh” value (α7 nAChR [11]) is listed as “In the X. laevis oocyte experiments, JN403 was a relatively potent partial agonist, with an efficacy of approximately 50% of that of ACh. 5HT3 receptors and other nAChRs were evaluated with calcium flux measurements in transfected cells, and JN403 was antagonist in these experiments”.
For “cis-1-methyl-2,3,3a,4,5,9b,-hexahydro-1H-pyrrolo[2,3-f]quinoline [ACME]”, the “Imax, % of that of ACh, rat α7 nAChR” value (rat α7 nAChR) is given as “The rigid nicotine analogs ACME and ACME-B were partial agonists for rat α7 nAChR (Imax, 10 and 20% of that of ACh, respectively). ACME-B was 2-fold more potent (EC50 ≈ 26 µM) than the boron-free form ACME. Potential antagonist activity of non-α7 nAChR not investigated”.
For `CCN(CC)CCOc1ccc2c(c1)C(=O)c1cc(OCCN(CC)CC)ccc1-2` [Tilorone], the “activity at other nAChR (Summary)” value (other nAChR tested; α4β2, putative α3β4 (IMR-32), ref Briggs et al., 2008) is listed as “antagonist activity for α4β2 and more potently for putative α3β4” and the “agonist character at α7 (Summary)” value (α7 nAChR [11]; human α7, rat α7, oocytes, transfected cells, ref Briggs et al., 2008) is listed as “Partial agonist”.
For `CN1C[C@@H]2CN(c3ccc4oc5ccccc5c(=O)c4c3)C[C@@H]2C1` [A-844606], the “activity at other nAChR (Summary)” value (other nAChR tested) is listed as “Partial agonist of a7 with relatively little activation of other nAChR tested. Demonstrated to have antagonist activity for α4β2 and more potently for putative α3β4. Mechanism of antagonism not investigated” and the “agonist character at α7 (Summary)” value (α7 nAChR [11]) is listed as “Partial agonist of a7 with relatively little activation of other nAChR tested. Demonstrated to have antagonist activity for α4β2 and more potently for putative α3β4. Mechanism of antagonism not investigated”.

Reference: PMC2999882 (Molecular pharmacology, 2008)
